Results on 33 compounds are retold here after patent US8163767B2, “Heterocyclic Janus Kinase 3 inhibitors” (Astellas Pharma Inc., priority 2005, dated 2012).

Where a name gives a salt, the structure may show the parent alone.

The target in one assay is T1, human JAK3 (Homo sapiens, UniProt P52333).
T1 construct: His (N); purchased Carna Bioscience Inc. (Kobe, Japan); host or cells: baculovirus expression system
T1 sequence (P52333 796-1124): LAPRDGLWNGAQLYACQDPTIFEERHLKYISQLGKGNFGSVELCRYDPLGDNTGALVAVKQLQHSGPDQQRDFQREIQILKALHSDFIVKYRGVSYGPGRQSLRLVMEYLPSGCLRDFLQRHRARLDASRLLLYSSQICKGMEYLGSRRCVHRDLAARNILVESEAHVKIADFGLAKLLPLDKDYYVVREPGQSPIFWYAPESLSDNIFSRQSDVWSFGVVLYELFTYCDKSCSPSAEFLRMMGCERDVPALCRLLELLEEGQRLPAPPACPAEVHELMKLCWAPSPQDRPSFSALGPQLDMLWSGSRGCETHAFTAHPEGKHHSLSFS
Description: Determination of Janus Kinase 3 (JAK3) inhibitory activity. The class given is biochemical. The settings on record: JAK3 inhibitory activity. How it is done:
Test 1: Determination of Janus Kinase 3 (JAK3) Inhibitory Activity
The assay for JAK3 activity was performed basically according to the method as proposed by Okimoto et al, as follows.
Purified kinase domain (KD) of human JAK3 was purchased from Carna Bioscience Inc. (Kobe, Japan). 796-1124 (end) amino acids of human JAK3 [accession number #NM_000215] was expressed as N-terminal His-tagged protein (41 kDa) using the baculovirus expression system and purified by using Ni-NTA affinity chromatography.
Biotin-Lyn-Substrate-peptide and ATP were used as substrates. Assay buffer consisted of 15 mM Tris-HCl pH7.5, 0.01% Tween 20 and 2 mM DTT. For the standard assay, 20 μL of substrate solution (Assay buffer containing 627 nM Biotin-Lyn-Substrate-2, 20 μM ATP and 25 mM MgCl2), 10 μL of assay buffer containing test compound and 20 μL of enzyme solution were added to the plate and mixed well.
After 1 hour incubation at ambient temperature, the plate was washed 4 times with wash buffer (50 mM Tris-HCl pH 7.5, 150 mM NaCl, 0.02% Tween 20), and then blocking buffer (wash buffer containing 0.1% Bovine serum albumin) was added to the plate. After 30 minutes incubation at ambient temperature, blocking buffer was removed and HRP-PY-20 solution (HRP-PY-20 500 times diluted with blocking buffer) was added. After 30 minutes incubation at ambient temperature, the plate was washed 4 times and TMB substrate solution (Sigma) was added to the plate. After 4 minutes incubation at ambient temperature, 1 M H2SO4 was added to the plate to stop the reaction. Enzyme activity was measured as optical density at 450 nm.
Broadly, the IC50 is the concentration needed to halve the response being measured. A low value points to greater potency. `C[C@@H]1CCCC[C@@H]1Nc1c(C(N)=O)cnc2[nH]ccc12` [Example 106, 4-{[(1S,2R)-2-Methylcyclohexyl]amino}-1H-pyrrolo[2,3-b]-pyridine-5-carboxamide] registered an IC50 of 3 nM.

Regarding `C[C@@H]1CCCC[C@@H]1n1c(=O)[nH]c2cnc3[nH]ccc3c21` [Example 112, 1-[(1S,2R)-2-methylcyclohexyl]-3,6-dihydroimidazo[4,5-d]pyrrolo[2,3-b]pyridin-2(1H)-one], the IC50 came to 3 nM.

The compound `CC[C@@H]1CCCC[C@@H]1n1c(=O)[nH]c2cnc3[nH]ccc3c21` [Example 118, 1-[(1S,2R)-2-Ethylcyclohexyl]-3,6-dihydroimidazo[4,5-d]pyrrolo-[2,3-b]pyridin-2(1H)-one hydrochloride] registered an IC50 of 5.1 nM.

The assay is the same for the next values; noted with them: read-out: IR (JAK3 inhibition rate).
The term inhibition denotes the change of the read-out against control, counted positive when it falls. With `CC[C@@H]1CCCC[C@@H]1n1c(=O)[nH]c2cnc3[nH]ccc3c21` [Example 118, 1-[(1S,2R)-2-Ethylcyclohexyl]-3,6-dihydroimidazo[4,5-d]pyrrolo-[2,3-b]pyridin-2(1H)-one hydrochloride], the inhibition at 0.01 µM was > 50%.

Still in this assay, the particulars now being: test compound 10^−5M; read-out: IR (JAK3 inhibition rate).
Consider `CCOC(=O)c1cnc2[nH]ccc2c1N(C)[C@H]1CCCC[C@H]1C` [Example 1, ethyl 4-{methyl[(1S,2R)-2-methylcyclohexyl]amino}-1H-pyrrolo[2,3-b]pyridine-5-carboxylate], for which the inhibition at 10 µM is > 50%.

Regarding `CN(c1c(C(N)=O)cnc2[nH]ccc12)C1CCCCC1` [Example 4, 4-[Cyclohexyl(methyl)amino]-1H-pyrrolo[2,3-b]pyridine-5-carboxamide], the inhibition at 10 µM was > 50%.

As to `C[C@@H]1CCCC[C@@H]1N(C)c1c(C#N)cnc2[nH]ccc12` [Example 5, 4-{Methyl[(1S,2R)-2-methylcyclohexyl]amino}-1H-pyrrolo[2,3-b]-pyridine-5-carbonitrile], the inhibition at 10 µM is > 50%.

As to `NC(=O)c1cnc2[nH]ccc2c1NC1CCCC1` [Example 6, 4-(Cyclopentylamino)-1H-pyrrolo[2,3-b]pyridine-5-carboxamide], the inhibition at 10 µM was > 50%.

Take `C[C@@H]1CCCC[C@@H]1Nc1c(C#N)cnc2[nH]ccc12` [Example 15, 4-{[(1S,2R)-2-Methylcyclohexyl]amino}-1H-pyrrolo[2,3-b]-pyridine-5-carbonitrile]: the inhibition at 10 µM was > 50%.

As for `O=C(O)c1cnc2[nH]ccc2c1NC1CCCCC1` [Example 96, 4-(cyclohexylamino)-1H-pyrrolo[2,3-b]pyridine-5-carboxylic acid], the inhibition at 10 µM was > 50%.

`NC(=O)c1cnc2[nH]ccc2c1N[C@@H]1CCCC[C@@H]1CO` [Example 109, 4-{[(1R,2S)-2-(Hydroxymethyl)cyclohexyl]amino}-1H-pyrrolo-[2,3-b]pyridine-5-carboxamide]: the inhibition at 10 µM was > 50%.

Regarding `C[C@@H]1CCCC[C@@H]1N(C)c1ccnc2[nH]cnc12` [Example 156, N-Methyl-N-[(1S,2R)-2-methylcyclohexyl]-3H-imidazo[4,5-b]-pyridin-7-amine], the inhibition at 10 µM is > 50%.

Regarding `CNC(=O)c1cnc2[nH]ccc2c1NC1CCCCC1` [Example 187, 4-(cyclohexylamino)-N-methyl-1H-pyrrolo[2,3-b]pyridine-5-carboxamide], the inhibition at 10 µM was > 50%.

As to `O=C(Nc1ccccc1)c1cnc2[nH]ccc2c1NC1CCCCC1` [Example 192, 4-(Cyclohexylamino)-N-phenyl-1H-pyrrolo[2,3-b]pyridine-5-carboxamide], the inhibition at 10 µM was > 50%.

Turning to `CN(c1ccnc2nc[nH]c12)C1CCCCC1` [Example 209, N-cyclohexyl-N-methyl-1H-imidazo[4,5-b]pyridin-7-amine], the inhibition at 10 µM is > 50%.

For the compound `CN(c1ccnc2[nH]cc([N+](=O)[O-])c12)C1CCCCC1` [Example 210, N-cyclohexyl-N-methyl-3-nitro-1H-pyrrolo[2,3-b]pyridin-4-amine], the inhibition at 10 µM was > 50%.

As to `CN(c1ccnc2[nH]ccc12)C1CCCCC1` [Example 211, N-cyclohexyl-N-methyl-1H-pyrrolo[2,3-b]pyridin-4-amine], the inhibition at 10 µM is > 50%.

As for `CN(c1ccnc2[nH]cc(C#N)c12)C1CCCCC1` [Example 212, 4-[cyclohexyl(methyl)amino]-1H-pyrrolo[2,3-b]pyridine-3-carbonitrile], the inhibition at 10 µM is > 50%.

As to `CN(c1c(F)cnc2[nH]ccc12)C1CCCCC1` [Example 214, N-cyclohexyl-5-fluoro-N-methyl-1H-pyrrolo[2,3-b]pyridin-4-amine], the inhibition at 10 µM is > 50%.

Consider `Fc1cnc2[nH]ccc2c1NC1CCCCC1` [Example 222, N-cyclohexyl-5-fluoro-1H-pyrrolo[2,3-b]pyridin-4-amine], for which the inhibition at 10 µM was > 50%.

`Fc1cnc2[nH]ccc2c1N1CCCCC1` [Example 223, 5-fluoro-4-(1-piperidinyl)-1H-pyrrolo[2,3-b]pyridine]: the inhibition at 10 µM is > 50%.

In the case of `C[C@@H]1CCCC[C@@H]1Nc1c(F)cnc2[nH]ccc12` [Example 225, 5-fluoro-N-[(1S,2R)-2-methylcyclohexyl]-1H-pyrrolo[2,3-b]pyridin-4-amine], the inhibition at 10 µM was > 50%.

Staying with this assay, now noted: test compound 10^−8M; read-out: IR (JAK3 inhibition rate).
With `C[C@@H]1CCN(C(=O)c2ccc(Cl)s2)C[C@@H]1n1c(=O)[nH]c2cnc3[nH]ccc3c21` (relative stereo) [Example 170, rel-1-{(3R,4R)-1-[(5-Chloro-2-thienyl)carbonyl]-4-methyl-3-piperidinyl}-3,6-dihydroimidazo[4,5-d]pyrrolo[2,3-b]pyridin-2(1H)-one], the inhibition at 0.01 µM was > 50%.

`C[C@@H]1CCN(C(=O)CC#N)C[C@@H]1n1c(=O)[nH]c2cnc3[nH]ccc3c21` (relative stereo) [Example 189, rel-3-[(3R,4R)-4-Methyl-3-(2-oxo-3,6-dihydroimidazo[4,5-d]pyrrolo-[2,3-b]pyridin-1(2H)-yl)-1-piperidinyl]-3-oxopropanenitrile]: the inhibition at 0.01 µM was > 50%.

As for `C[C@@H]1CCN(C(=O)N2CCC(F)(F)C2)C[C@@H]1n1c(=O)[nH]c2cnc3[nH]ccc3c21` (relative stereo) [Example 274, rel-1-{(3R,4R)-1-[(3,3-difluoropyrrolidin-1-yl)carbonyl]-4-methylpiperidin-3-yl}-3,6-dihydroimidazo[4,5-d]pyrrolo[2,3-b]pyridin-2(1H)-one], the inhibition at 0.01 µM was > 50%.

On to `C[C@@H]1CCN(c2ccc(C#N)cn2)C[C@@H]1n1c(=O)[nH]c2cnc3[nH]ccc3c21` (relative stereo) [Example 323, rel-6-[(3R,4R)-4-Methyl-3-(2-oxo-3,6-dihydroimidazo[4,5-d]-pyrrolo[2,3-b]pyridin-1(2H)-yl)piperidin-1-yl]nicotinonitrile], for which the inhibition at 0.01 µM was > 50%.

In the case of `N#Cc1ccc(N2CCC(Nc3c(C(N)=O)cnc4[nH]ccc34)CC2)nc1` [Example 17, 4-{[1-(5-Cyano-2-pyridinyl)-4-piperidinyl]amino}-1H-pyrrolo-[2,3-b]pyridine-5-carboxamide], the inhibition at 0.01 µM is > 50%.

Consider `CC(C)[C@@H](C)Nc1c(C(N)=O)cnc2[nH]ccc12` [Example 18, 4-{[(1R)-1,2-Dimethylpropyl]amino}-1H-pyrrolo[2,3-b]pyridine-5-carboxamide], for which the inhibition at 0.01 µM is > 50%.

As to `C[C@@H]1CCCC[C@@H]1Nc1c(C(N)=O)cnc2[nH]ccc12` [Example 106, 4-{[(1S,2R)-2-Methylcyclohexyl]amino}-1H-pyrrolo[2,3-b]-pyridine-5-carboxamide], the inhibition at 0.01 µM is > 50%.

For `C[C@@H]1CCCC[C@@H]1n1c(=O)[nH]c2cnc3[nH]ccc3c21` [Example 112, 1-[(1S,2R)-2-methylcyclohexyl]-3,6-dihydroimidazo[4,5-d]pyrrolo[2,3-b]pyridin-2(1H)-one], the inhibition at 0.01 µM was > 50%.

Consider `CC1CCN(C(=O)C2(C#N)CC2)CC1n1c(=O)[nH]c2cnc3[nH]ccc3c21` (stereo not drawn) [Example 175, 1-{[4-Methyl-3-(2-oxo-3,6-dihydroimidazo[4,5-d]pyrrolo[2,3-b]-pyridin-1(2H)-yl)-1-piperidinyl]carbonyl}cyclopropane-carbonitrile], for which the inhibition at 0.01 µM was > 50%.

Regarding `C[C@@H]1CCN(c2ccc(C#N)cn2)C[C@@H]1n1c(=O)[nH]c2cnc3[nH]ccc3c21` [Example 240, 6-[(3R,4R)-4-Methyl-3-(2-oxo-3,6-dihydroimidazo[4,5-d]pyrrolo[2,3-b]pyridin-1(2H)-yl)-1-piperidinyl]nicotinonitrile], the inhibition at 0.01 µM is > 50%.

In the case of `CC1CCN(c2ncc(C#N)s2)CC1n1c(=O)[nH]c2cnc3[nH]ccc3c21` (stereo not drawn) [Example 242, 2-[4-Methyl-3-(2-oxo-3,6-dihydroimidazo[4,5-d]pyrrolo[2,3-b]-pyridin-1(2H)-yl)-1-piperidinyl]-thiazole-5-carbonitrile], the inhibition at 0.01 µM was > 50%.

Turning to `CC1CCN(c2ccc(C#N)nn2)CC1n1c(=O)[nH]c2cnc3[nH]ccc3c21` (stereo not drawn) [Example 244, 6-[4-Methyl-3-(2-oxo-3,6-dihydroimidazo[4,5-d]pyrrolo[2,3-b]-pyridin-1(2H)-yl)-1-piperidinyl]-3-pyridazinecarbonitrile], the inhibition at 0.01 µM is > 50%.

Turning to `CC1CCN(C(=O)N(C)C)CC1n1c(=O)[nH]c2cnc3[nH]ccc3c21` (stereo not drawn) [Example 275, N,N,4-Trimethyl-3-(2-oxo-3,6-dihydroimidazo[4,5-d]pyrrolo-[2,3-b]pyridin-1(2H)-yl)-1-piperidine carboxamide], the inhibition at 0.01 µM is > 50%.

Regarding `CC1CCN(C(=O)N2CC(C#N)C2)CC1n1c(=O)[nH]c2cnc3[nH]ccc3c21` (stereo not drawn) [Example 280, 1-{[4-Methyl-3-(2-oxo-3,6-dihydroimidazo[4,5-d]pyrrolo[2,3-b]-pyridin-1(2H)-yl)-1-piperidinyl]carbonyl}-3-azetidinecarbonitrile], the inhibition at 0.01 µM was > 50%.
